Results from ChEMBL document CHEMBL1140446, “Designed multiple ligands. An emerging drug discovery paradigm” (J Med Chem, 2005).
pIC50, pKd, pKi: −log10 of the molar value.

Assays:
[1] = target: T1, Neprilysin (Homo sapiens, UniProt P08473)
Description: Inhibitory concentration against neutral endopeptidase

[2] = target: T2, Angiotensin-converting enzyme (Homo sapiens, UniProt P12821); test: Inhibitory concentration against angiotensin I converting enzyme
[3] = target: T3, Sodium-dependent serotonin transporter (Homo sapiens, UniProt P31645); test: Negative logarithm causing 50% receptor occupancy against serotonin transporter
T3 sequence (P31645 whole entry): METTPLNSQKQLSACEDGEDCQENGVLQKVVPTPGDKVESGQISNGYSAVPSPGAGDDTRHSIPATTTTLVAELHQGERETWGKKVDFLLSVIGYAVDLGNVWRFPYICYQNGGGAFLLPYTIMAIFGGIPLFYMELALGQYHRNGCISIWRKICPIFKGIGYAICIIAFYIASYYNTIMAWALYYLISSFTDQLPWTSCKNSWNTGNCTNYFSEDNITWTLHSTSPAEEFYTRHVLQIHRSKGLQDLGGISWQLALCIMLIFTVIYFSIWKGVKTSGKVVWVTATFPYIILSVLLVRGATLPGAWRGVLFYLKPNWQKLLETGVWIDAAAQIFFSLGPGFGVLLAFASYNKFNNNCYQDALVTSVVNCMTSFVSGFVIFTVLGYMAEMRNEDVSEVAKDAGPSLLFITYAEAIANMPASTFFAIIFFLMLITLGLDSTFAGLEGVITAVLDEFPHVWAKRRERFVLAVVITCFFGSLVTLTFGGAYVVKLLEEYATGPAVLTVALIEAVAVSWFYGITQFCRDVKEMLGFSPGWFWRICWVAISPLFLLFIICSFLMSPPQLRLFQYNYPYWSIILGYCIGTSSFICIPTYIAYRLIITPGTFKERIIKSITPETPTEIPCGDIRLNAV

[4] = target: Beta-2 adrenergic receptor (Homo sapiens, UniProt P07550); test: Negative logarithm causing 50% receptor occupancy against beta-2 adrenergic receptor
[5] = target: T4, Adrenergic receptor alpha-1 (Homo sapiens, UniProt P35348+P25100+P35368)
T4 sequence (P35348 whole entry): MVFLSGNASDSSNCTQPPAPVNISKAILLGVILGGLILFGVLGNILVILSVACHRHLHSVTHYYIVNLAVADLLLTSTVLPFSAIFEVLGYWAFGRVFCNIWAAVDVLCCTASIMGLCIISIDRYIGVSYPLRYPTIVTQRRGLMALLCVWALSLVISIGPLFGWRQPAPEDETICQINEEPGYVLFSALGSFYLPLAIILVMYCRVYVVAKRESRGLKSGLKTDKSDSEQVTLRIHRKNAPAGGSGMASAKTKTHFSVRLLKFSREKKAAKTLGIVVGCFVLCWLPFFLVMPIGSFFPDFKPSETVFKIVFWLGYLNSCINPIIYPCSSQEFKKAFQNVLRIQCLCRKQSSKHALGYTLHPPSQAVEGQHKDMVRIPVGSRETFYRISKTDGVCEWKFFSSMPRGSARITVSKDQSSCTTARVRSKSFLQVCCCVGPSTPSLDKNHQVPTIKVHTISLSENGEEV
T4 sequence (P25100 whole entry): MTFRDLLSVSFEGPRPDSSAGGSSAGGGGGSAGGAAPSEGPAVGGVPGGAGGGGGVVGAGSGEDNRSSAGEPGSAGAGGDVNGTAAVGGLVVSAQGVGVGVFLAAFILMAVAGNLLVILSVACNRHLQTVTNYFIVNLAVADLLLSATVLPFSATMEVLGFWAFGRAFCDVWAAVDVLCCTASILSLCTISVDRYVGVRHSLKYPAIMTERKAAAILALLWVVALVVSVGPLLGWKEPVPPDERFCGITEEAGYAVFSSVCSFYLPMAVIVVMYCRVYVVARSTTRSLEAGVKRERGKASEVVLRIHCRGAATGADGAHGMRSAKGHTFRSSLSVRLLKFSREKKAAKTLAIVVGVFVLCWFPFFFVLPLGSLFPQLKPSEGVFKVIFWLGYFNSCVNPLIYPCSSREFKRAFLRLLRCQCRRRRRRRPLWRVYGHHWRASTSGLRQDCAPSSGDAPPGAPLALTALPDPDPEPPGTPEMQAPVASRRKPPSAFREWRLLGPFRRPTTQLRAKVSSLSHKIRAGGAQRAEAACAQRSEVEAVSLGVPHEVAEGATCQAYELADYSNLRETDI
T4 sequence (P35368 whole entry): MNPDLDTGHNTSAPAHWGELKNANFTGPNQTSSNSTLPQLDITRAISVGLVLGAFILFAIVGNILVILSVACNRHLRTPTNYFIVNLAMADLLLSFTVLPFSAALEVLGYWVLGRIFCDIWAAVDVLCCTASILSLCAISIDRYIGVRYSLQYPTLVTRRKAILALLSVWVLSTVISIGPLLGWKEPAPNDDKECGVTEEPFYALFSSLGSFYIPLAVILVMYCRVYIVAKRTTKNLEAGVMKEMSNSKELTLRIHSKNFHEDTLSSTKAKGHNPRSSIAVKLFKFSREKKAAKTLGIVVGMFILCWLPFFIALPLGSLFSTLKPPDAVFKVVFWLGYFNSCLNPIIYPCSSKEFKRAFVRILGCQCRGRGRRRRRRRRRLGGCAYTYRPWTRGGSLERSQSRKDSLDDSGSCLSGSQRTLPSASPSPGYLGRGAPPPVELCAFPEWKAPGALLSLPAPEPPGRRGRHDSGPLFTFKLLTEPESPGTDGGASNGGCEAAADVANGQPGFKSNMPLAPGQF
Description: Inhibitory concentration against alpha adrenergic receptor

[6] = target: 5-hydroxytryptamine receptor 2A (Homo sapiens, UniProt P28223)
Description: Inhibitory concentration against 5-hydroxytryptamine 2 receptor

[7] = target: T5, 5-hydroxytryptamine receptor 1A (Homo sapiens, UniProt P08908); test: Inhibitory concentration against 5-hydroxytryptamine 1A receptor
T5 sequence (P08908 whole entry): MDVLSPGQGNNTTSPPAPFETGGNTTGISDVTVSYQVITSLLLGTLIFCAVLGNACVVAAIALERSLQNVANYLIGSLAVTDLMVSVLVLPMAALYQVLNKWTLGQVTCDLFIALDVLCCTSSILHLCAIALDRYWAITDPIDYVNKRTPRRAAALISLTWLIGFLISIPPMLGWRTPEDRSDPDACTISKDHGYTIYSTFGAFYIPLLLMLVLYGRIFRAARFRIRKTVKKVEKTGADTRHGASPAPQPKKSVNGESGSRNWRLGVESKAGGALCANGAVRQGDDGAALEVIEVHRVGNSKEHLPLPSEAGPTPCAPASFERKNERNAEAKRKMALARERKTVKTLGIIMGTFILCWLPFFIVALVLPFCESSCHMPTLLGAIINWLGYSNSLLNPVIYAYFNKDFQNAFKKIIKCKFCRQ

[8] = target: T6, D(2) dopamine receptor (Homo sapiens, UniProt P14416)
T6 sequence (P14416 whole entry): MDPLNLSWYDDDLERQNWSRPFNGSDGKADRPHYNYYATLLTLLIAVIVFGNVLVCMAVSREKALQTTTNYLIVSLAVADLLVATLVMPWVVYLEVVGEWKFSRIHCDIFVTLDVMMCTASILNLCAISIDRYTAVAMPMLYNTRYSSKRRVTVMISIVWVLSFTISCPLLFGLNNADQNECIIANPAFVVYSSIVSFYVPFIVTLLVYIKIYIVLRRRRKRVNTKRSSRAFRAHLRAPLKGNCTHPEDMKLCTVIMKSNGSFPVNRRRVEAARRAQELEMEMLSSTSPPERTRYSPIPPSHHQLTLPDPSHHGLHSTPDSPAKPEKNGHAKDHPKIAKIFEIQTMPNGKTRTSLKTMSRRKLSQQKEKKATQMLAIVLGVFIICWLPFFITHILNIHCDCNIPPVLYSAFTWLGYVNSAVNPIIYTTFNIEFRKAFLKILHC
Description: Inhibitory concentration against dopamine receptor D2

[9] = target: Platelet-activating factor receptor (Homo sapiens, UniProt P25105)
Platelet-activating factor receptor, sequence (P25105 whole entry): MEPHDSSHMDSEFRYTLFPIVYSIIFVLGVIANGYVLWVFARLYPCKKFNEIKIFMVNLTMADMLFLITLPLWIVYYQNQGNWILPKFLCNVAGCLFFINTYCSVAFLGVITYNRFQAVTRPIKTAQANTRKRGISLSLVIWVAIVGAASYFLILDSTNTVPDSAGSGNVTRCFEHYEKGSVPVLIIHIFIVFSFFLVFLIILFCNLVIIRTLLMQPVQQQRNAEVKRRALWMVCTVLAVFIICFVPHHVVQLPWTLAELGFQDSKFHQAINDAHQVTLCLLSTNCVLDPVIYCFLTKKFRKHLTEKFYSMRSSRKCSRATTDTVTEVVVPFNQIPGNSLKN
Description: Inhibitory concentration against platelet activating factor receptor

[10] = target: T3, Sodium-dependent serotonin transporter
Description: Inhibitory concentration against serotonin transporter

[11] = target: Acetylcholinesterase (Homo sapiens, UniProt P22303)
Description: Inhibitory concentration against acetylcholinesterase

[12] = target: Tyrosine-protein kinase ABL1 (Homo sapiens, UniProt P00519); test: Inhibitory concentration against v-Abl tyrosine kinase
[13] = target: T6, D(2) dopamine receptor; remark: listed apart in the source
Description: Inhibition constant against dopamine receptor D2

[14] = target: T4, Adrenergic receptor alpha-1; test: Inhibition constant against alpha adrenergic receptor; type: protein assay
[15] = target: Sodium-dependent dopamine transporter (Homo sapiens, UniProt Q01959)
Description: Inhibitory concentration against dopamine transporter

[16] = target: T3, Sodium-dependent serotonin transporter; remark: listed apart in the source
Description: Inhibition constant against serotonin transporter

[17] = Oral bioavailability; type: ADME, organism-based; conditions: eutheria, in vivo
[18] = target: Cysteinyl leukotriene receptor 1 (Cavia porcellus, UniProt Q2NNR5); test: Inhibitory concentration against LTD4-induced contraction of guinea pig ileum at 10 uM concentration; type: tissue-based
[19] = target: T7, Substance-K receptor (Homo sapiens, UniProt P21452); test: Binding affinity towards tachykinin receptor 2
T7 sequence (P21452 whole entry): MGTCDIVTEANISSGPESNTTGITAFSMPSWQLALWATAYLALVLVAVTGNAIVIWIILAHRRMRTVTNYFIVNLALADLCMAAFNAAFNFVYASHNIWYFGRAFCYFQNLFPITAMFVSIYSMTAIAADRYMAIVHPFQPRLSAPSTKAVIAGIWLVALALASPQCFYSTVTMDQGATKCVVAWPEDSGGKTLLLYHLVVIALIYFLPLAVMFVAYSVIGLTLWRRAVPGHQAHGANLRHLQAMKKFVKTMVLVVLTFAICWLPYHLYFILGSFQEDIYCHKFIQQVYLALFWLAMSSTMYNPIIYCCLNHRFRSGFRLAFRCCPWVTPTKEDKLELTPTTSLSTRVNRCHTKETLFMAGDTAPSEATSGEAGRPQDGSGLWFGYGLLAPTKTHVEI

[20] = target: T8, Substance-P receptor (Homo sapiens, UniProt P25103)
T8 sequence (P25103 whole entry): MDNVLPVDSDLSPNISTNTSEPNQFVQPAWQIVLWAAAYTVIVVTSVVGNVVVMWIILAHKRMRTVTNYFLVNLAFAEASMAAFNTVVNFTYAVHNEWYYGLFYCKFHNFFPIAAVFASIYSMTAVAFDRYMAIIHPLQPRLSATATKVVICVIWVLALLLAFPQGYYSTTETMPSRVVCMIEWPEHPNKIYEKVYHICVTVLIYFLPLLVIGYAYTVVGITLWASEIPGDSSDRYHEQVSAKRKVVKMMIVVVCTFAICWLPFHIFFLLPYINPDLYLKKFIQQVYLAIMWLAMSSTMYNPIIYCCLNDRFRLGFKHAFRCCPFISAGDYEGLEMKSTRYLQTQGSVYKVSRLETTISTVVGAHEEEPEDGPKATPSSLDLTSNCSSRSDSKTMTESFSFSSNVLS
Description: Binding affinity towards tachykinin receptor 1

[21] = target: T9, Histamine H1 receptor (Homo sapiens, UniProt P35367)
T9 sequence (P35367 whole entry): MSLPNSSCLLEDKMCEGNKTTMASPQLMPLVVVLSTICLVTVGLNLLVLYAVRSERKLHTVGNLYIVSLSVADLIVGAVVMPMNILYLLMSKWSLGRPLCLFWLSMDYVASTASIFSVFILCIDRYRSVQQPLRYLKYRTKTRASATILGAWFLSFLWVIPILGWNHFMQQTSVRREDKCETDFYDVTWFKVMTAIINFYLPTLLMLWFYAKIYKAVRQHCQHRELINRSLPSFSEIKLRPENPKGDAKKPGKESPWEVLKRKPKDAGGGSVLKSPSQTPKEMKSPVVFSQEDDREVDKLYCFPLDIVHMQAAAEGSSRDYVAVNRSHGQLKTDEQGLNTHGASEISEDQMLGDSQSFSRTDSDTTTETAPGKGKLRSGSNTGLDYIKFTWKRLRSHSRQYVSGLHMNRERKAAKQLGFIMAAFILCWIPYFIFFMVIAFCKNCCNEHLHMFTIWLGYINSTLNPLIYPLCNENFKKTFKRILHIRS
Description: Dissociation constant against histamine H1 receptor

[22] = target: Histamine H3 receptor (Homo sapiens, UniProt Q9Y5N1); test: Inhibition constant against histamine H3 receptor
[23] = target: T9, Histamine H1 receptor; remark: listed apart in the source
Description: Inhibition constant against histamine H1 receptor

[24] = target: T8, Substance-P receptor; remark: listed apart in the source
Description: Inhibitory concentration against neurokinin NK1 receptor

[25] = target: T9, Histamine H1 receptor; remark: listed apart in the source
Description: Inhibitory concentration against histamine H1 receptor

[26] = target: Procathepsin L (Homo sapiens, UniProt P07711); test: Inhibitory concentration against cathepsin L
[27] = target: Adrenergic receptor alpha-1 (Homo sapiens) (UniProt P35348+P25100+P35368); test: Inhibition constant against alpha adrenergic receptor at 0.1 uM concentration; type: protein assay
[28] = target: T10, Gastrin/cholecystokinin type B receptor (Homo sapiens, UniProt P32239); test: Inhibitory concentration against Cholecystokinin B receptor
T10 sequence (P32239 whole entry): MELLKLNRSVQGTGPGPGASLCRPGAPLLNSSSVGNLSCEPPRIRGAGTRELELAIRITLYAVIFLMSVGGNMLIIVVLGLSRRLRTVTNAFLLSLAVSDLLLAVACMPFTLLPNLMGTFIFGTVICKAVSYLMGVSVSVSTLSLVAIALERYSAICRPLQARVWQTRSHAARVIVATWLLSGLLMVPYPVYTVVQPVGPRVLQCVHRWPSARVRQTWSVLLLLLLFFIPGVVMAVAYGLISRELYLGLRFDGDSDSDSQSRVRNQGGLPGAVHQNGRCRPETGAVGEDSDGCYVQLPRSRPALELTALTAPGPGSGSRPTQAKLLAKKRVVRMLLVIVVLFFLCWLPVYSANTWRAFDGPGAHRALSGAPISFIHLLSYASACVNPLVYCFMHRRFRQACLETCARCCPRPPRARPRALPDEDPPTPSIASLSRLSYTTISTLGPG

[29] = target: Histamine H2 receptor (Homo sapiens, UniProt P25021); test: Negative logarithm of the drug concentration against H2 histamine receptor; conditions: read-out: pA2 (converted)
[30] = target: T10, Gastrin/cholecystokinin type B receptor; test: Inhibitory concentration against gastrin receptor
[31] = target: 5-hydroxytryptamine receptor 1B (Homo sapiens, UniProt P28222)
Description: Inhibition constant against 5-HT 1B receptor

[32] = target: 5-hydroxytryptamine receptor 1D (Homo sapiens, UniProt P28221); test: Inhibition constant against 5-hydroxytryptamine 1D receptor
[33] = target: 5-hydroxytryptamine receptor 2A (Rattus norvegicus, UniProt P14842); test: Inhibition constant against 5-Hydroxytryptamine 2 receptor in olfactory bulbectomized rat
[34] = target: T5, 5-hydroxytryptamine receptor 1A
Description: Inhibition constant against 5-hydroxytryptamine 1A receptor

[35] = target: T2, Angiotensin-converting enzyme; test: Inhibition constant against angiotensin I converting enzyme
[36] = target: Endothelin-converting enzyme 1 (Homo sapiens, UniProt P42892); test: Inhibition constant against endothelin converting enzyme 1
[37] = target: T1, Neprilysin; test: Inhibition constant against neutral endopeptidase
[38] = target: T8, Substance-P receptor; test: Negative logarithm causing 50% receptor occupancy against tachykinin receptor 1

T2 sequence (P12821 whole entry): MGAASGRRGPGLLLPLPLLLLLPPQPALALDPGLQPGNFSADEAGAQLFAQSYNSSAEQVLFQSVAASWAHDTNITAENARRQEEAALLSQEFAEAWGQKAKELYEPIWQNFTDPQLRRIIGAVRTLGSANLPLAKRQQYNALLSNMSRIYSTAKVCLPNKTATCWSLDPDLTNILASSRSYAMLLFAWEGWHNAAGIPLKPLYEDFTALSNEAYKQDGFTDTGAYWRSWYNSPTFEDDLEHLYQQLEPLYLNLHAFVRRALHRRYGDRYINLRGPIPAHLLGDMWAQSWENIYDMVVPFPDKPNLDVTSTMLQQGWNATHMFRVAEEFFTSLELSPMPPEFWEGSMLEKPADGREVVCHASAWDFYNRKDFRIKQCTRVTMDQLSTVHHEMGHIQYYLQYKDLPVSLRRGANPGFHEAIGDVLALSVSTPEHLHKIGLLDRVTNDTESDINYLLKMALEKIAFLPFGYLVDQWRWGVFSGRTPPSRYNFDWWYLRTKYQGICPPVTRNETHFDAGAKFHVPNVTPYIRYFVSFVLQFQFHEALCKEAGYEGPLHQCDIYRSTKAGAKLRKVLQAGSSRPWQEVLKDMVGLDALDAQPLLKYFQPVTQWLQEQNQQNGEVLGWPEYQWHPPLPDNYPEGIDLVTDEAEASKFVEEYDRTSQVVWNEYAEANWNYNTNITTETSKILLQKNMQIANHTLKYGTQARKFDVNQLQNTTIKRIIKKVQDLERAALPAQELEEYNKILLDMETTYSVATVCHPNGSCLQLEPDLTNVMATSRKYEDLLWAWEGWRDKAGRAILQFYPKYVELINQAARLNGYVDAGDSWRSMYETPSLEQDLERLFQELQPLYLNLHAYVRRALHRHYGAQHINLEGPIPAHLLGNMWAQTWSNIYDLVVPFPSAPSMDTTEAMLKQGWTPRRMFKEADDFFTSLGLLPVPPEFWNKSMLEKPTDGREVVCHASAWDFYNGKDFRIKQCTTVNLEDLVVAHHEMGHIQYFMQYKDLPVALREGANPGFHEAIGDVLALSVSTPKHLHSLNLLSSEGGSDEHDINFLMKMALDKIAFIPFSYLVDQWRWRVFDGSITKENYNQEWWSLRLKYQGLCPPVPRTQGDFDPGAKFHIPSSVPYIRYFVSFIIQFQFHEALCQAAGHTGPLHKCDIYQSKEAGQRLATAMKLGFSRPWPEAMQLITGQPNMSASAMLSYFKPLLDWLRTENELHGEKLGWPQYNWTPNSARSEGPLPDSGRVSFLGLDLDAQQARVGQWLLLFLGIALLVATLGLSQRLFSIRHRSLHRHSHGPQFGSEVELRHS
T1 sequence (P08473 whole entry): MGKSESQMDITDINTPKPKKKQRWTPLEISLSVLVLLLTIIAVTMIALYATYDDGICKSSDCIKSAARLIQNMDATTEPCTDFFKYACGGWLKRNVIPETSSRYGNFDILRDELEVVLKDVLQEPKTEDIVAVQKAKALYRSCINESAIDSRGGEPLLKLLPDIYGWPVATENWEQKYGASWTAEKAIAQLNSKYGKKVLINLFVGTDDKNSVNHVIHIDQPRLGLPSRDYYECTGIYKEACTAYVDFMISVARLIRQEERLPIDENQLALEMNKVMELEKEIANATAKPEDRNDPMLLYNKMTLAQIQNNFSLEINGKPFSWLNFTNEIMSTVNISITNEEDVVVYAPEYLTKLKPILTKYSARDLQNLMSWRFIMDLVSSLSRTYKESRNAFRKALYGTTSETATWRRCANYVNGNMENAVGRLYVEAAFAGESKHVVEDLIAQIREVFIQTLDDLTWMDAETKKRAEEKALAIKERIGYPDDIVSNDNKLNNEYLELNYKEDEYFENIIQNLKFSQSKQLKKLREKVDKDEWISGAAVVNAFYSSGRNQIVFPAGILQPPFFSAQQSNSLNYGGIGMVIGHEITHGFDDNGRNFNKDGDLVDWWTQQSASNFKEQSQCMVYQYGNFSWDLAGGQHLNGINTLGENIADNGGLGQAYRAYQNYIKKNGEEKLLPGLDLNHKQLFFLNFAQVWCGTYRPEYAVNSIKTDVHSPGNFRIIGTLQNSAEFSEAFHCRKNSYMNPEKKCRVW

## O=C(N[C@H]1Cc2ccccc2C2CCC[C@H](C(=O)O)N2C1=O)[C@H](S)Cc1ccccc1 (stereo partly drawn)
[1]
  pIC50: 10.10
[2]
  pIC50: 9.96

## Cc1ccc2c(OCCN3CCC(Cc4ccc5c(c4)NC(=O)CO5)CC3)cccc2n1
[3]
  pKi: 8.20
[4]
  Log Ki: < -6.3

## O=C1Cc2cc(CCN3CCN(c4cccc5ccccc45)CC3)ccc2N1
[5]
  IC50: 45 nM
[6]
  pIC50: 7.70
[7]
  pIC50: 8.30
[8]
  pIC50: 7.36

## Cc1cncc(CN2CCC(=C3c4ccc(Cl)cc4CCc4cccnc43)CC2)c1 [RUPATADINE]
[9]
  pIC50: 5.43

## CN[C@@H](CCOc1ccc([N+](=O)[O-])cc1)c1ccc(OC(=O)N(C)C)cc1
[10]
  pIC50: 7.38
[11]
  pIC50: 7.00

## O=C(O)CCNC(=O)C(CS)Cc1ccccc1 (stereo not drawn)
[1]
  pIC50: 8.03
[2]
  pIC50: 4.49

## O=C(Nc1cccc(Nc2nccc(-c3cccnc3)n2)c1)c1ccccc1
[12]
  pIC50: 6.40

## NC(=O)c1ccc2c(c1)CCOC2CCN1CC=C(c2c[nH]c3cc(F)ccc23)CC1 (stereo not drawn)
[10]
  pIC50: 9.96
[13]
  pKi: 8.33
[14]
  Ki: 16 nM

## CN(C)C[C@@H]1C2CCC(CC2)[C@@H]1c1cccc(Cl)c1
[10]
  pIC50: 6.57
[15]
  pIC50: 7.55

## OC(CCc1ccccc1)CN1CCC2(CC1)OCc1c2ccc2ccccc12 (stereo not drawn)
[16]
  pKi: 8.00
[17]
  bioavailability: 65%

## CN1CCC(=C2c3ccccc3C=Cc3ccccc32)CC1 [CYPROHEPTADINE]
[18]
  pIC50: < 4.00

## CN(C(=O)c1cc(C(F)(F)F)cc(C(F)(F)F)c1)[C@@H](/C=C/C(=O)NCCN1CCCCC1)Cc1ccc(Cl)cc1
[19]
  pIC50: 7.31
[20]
  pIC50: 8.00

## O=C(N[C@H](CN1CCC(OC2c3ccccc3CCc3ccccc32)CC1)C(=O)O)OCc1ccccc1
[21]
  pKd: 6.39
[18]
  pIC50: 5.81

## CN(CCCCc1c[nH]cn1)CCC(c1ccc(Cl)cc1)c1ccccn1 (stereo not drawn)
[22]
  pKi: 7.82
[23]
  pKi: 8.15

## COc1cc(C(=O)N2CC[C@](CCN3CCC(C(N)=O)(c4ccccc4)CC3)(c3ccc(Cl)c(Cl)c3)C2)cc(OC)c1OC
[24]
  pIC50: < 5.00
[25]
  pIC50: 8.52

## CC(C)C[C@H](CC(=O)NO)C(=O)N[C@@H](Cc1ccccc1)C(=O)N[C@@H](C)C=O
[26]
  pIC50: 7.60

## Fc1cc2c(c(OCCNCCCc3c[nH]c4ccc(F)cc34)c1)OCCC2
[16]
  pKi: 9.30
[27]
  inhibition: 79%

## COc1ccc(C2(CCN3CCC(C(=O)c4nc5ccccc5n4Cc4ccc(F)cc4)CC3)CCN(C(=O)c3cc(OC)c(OC)c(OC)c3)C2)cc1OC (stereo not drawn)
[24]
  pIC50: 7.51

## CN1C(=O)[C@H](NC(=O)Nc2ccc(CC(=O)NCCC(=O)NCCCOc3cccc(CN4CCCCC4)c3)cc2)N=C(c2ccccc2)c2ccccc21
[28]
  pIC50: 6.54
[29]
  Kb: 251 nM
[30]
  pIC50: 6.87

## C[C@@H]1CN(c2cccc3cc(F)ccc23)CCN1CCC1OCCc2c1sc(C(N)=O)c2Cl (stereo partly drawn)
[10]
  pIC50: 8.68
[31]
  pKi: < 6.00
[13]
  pKi: 6.54
[14]
  Ki: 140 nM
[32]
  pKi: 7.35

## c1ccc2c(N3CCNCC3)cccc2c1
[6]
  pIC50: 7.21
[8]
  pIC50: < 6.00

## COc1cccc2c1CCC[C@H]2CN(C)CCc1ccc2ccoc2c1
[33]
  pKi: 6.84
[34]
  pKi: 8.70

## COc1ccc2c(c1)CC[C@H]2[C@@H](CS)C(=O)N[C@@H](Cc1c[nH]c2ccccc12)C(=O)O
[35]
  pKi: 8.89
[36]
  pKi: 8.00
[37]
  pKi: 7.62

## O=C(CCc1cc(C(F)(F)F)cc(C(F)(F)F)c1)N(c1ccc(F)cc1)C1CCNCC1
[38]
  pKi: 6.70
[3]
  pKi: 6.60

## CC(=O)N1CCC(=C2c3ccc(Cl)cc3CCc3cccnc32)CC1 [SCH-37370]
[9]
  pIC50: 6.08
[25]
  pIC50: 7.00
